Measurements from US9776972B2, “Pyrazole derivatives as arginine methyltransferase inhibitors and uses thereof” (priority 2013, dated 2017).
Where two headings read alike, the source gives them in different places.

Assays:
human PRMT6 = target: T1, human PRMT6 (Homo sapiens, UniProt Q96LA8); assay: PRMT6 Biochemical Assay (3H-SAM Flashplate, peptide substrate)
T1 construct: Flag-PRMT6-His; made in house; host or cells: HEK 293F cells (BacMam baculovirus)
Summary of the method: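 Methylation of a biotin-tagged H4 (36-50) peptide by ³H-SAM was quantified by streptavidin Flashplate capture and scintillation counts (dpm/cpm). Before SAM/peptide addition, Flag-PRMT6-His was preincubated with compound for 30 min at room temperature in Bicine buffer, pH 7.6.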

human PRMT8 = human PRMT8 (Homo sapiens, UniProt Q9NR22); assay: PRMT8 Biochemical Assay (3H-SAM Flashplate, peptide substrate)
Sequence of human PRMT8 (Q9NR22 whole entry, the tested form may be a part): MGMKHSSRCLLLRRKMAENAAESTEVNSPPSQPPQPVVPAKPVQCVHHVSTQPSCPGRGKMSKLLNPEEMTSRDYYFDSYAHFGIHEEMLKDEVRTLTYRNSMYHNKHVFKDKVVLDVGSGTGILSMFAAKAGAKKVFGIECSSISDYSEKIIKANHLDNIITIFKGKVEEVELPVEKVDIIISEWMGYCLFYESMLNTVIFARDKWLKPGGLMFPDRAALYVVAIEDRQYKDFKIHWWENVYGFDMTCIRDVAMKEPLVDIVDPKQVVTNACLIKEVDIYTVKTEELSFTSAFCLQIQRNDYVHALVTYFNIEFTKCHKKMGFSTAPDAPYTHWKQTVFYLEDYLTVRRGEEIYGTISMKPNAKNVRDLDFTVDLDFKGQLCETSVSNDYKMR
Summary of the method: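 Methylation of a biotin-tagged histone H4 peptide (residues 31-45) by recombinant PRMT8 was measured as 3H transfer from 3H-SAM, after a 30 min room-temperature compound preincubation in Bicine buffer pH 7.6. Reactions were quenched with unlabelled SAM to 400 uM final, then bound counts were read by streptavidin Flashplate. IC50 came from a Hill fit of % inhibition relative to max and SAH min controls.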

[1] = Biochemical IC50 PRMT6, single experiment or average of multiple experiments
[2] = single experiment or average of multiple experiments

T1 sequence (Q96LA8 with tags, fused parts or gaps): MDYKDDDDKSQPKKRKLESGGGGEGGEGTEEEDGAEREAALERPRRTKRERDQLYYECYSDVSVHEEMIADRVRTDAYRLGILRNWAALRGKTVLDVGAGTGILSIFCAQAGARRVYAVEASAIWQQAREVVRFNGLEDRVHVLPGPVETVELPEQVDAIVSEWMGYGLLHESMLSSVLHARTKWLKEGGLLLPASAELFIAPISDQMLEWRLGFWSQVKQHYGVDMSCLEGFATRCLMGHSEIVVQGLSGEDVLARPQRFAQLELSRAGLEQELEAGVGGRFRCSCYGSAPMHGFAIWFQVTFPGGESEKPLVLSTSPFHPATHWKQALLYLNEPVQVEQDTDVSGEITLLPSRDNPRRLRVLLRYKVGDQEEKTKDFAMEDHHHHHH

IC50 (human PRMT6; Biochemical IC50 PRMT6) | IC50 (human PRMT6; [1]) | IC50 (human PRMT8) | IC50 (human PRMT8; [2]) | Structure (SMILES)
< 0.1 µM | 0.0106 µM | 0.101 to 1 µM | 0.108 µM | CNCCN(C)Cc1c[nH]nc1-c1ccc(OC2CC(OC)C2)cc1 (centres unmarked) [Compound 315]
< 0.1 µM | 0.0967 µM | < 0.1 µM | 0.043 µM | CNCCN(C)Cc1c[nH]nc1-c1ccc(OC(COC)COC)cc1 [Compound 316]
